Reference: PubChem BioAssay AID248 (DTP/NCI, 2004)
Values joined by “and” are separate entries in the source; they are usually repeats but may differ in a detail not shown here. Equal values may be shown once. Toxic doses and inconclusive results are not listed. Cut-off read from the data, not from the text of the source: active = T/C of 150% or more; inactive = T/C below 125%. Peptide text beside a SMILES is read from it. * marks the point of attachment. Cbz = O=C(OCc1ccccc1)*

Tested on: L1210 leukemia ip in BDF1 mice, survival T/C
Test: NCI In Vivo Anticancer Drug Screen. Data for tumor model L1210 Leukemia (intraperitoneal) in B6D2F1 (BDF1) mice
Conditions: endpoint: mean survival time, higher = longer survival
Procedure, shortened: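 Transplantable tumor model; survival measured in treated vs vehicle control mice. Value = treated/control.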

[1] = dose: 25.0 mg/kg/injection, schedule: Q01DX009 (ip), vehicle: Klucel (hydroxypropylcellulose) (HPC)
[2] = dose: 50.0 mg/kg/injection, schedule: Q01DX009 (ip), vehicle: Klucel (hydroxypropylcellulose) (HPC)
[3] = dose: 100.0 mg/kg/injection, schedule: Q01DX009 (ip), vehicle: Klucel (hydroxypropylcellulose) (HPC)
[4] = dose: 100.0 mg/kg/injection, schedule: Q04DX003 (ip), vehicle: Klucel (hydroxypropylcellulose) (HPC)
[5] = dose: 100.0 mg/kg/injection, schedule: Q01DX001 (ip), vehicle: saline
[6] = dose: 400.0 mg/kg/injection, schedule: Q01DX001 (ip), vehicle: saline
[7] = dose: 100.0 mg/kg/injection, schedule: Q01DX009 (ip), vehicle: saline with Tween-80
[8] = dose: 200.0 mg/kg/injection, schedule: Q01DX009 (ip), vehicle: saline with Tween-80
[9] = dose: 400.0 mg/kg/injection, schedule: Q01DX009 (ip), vehicle: saline with Tween-80
[10] = dose: 100.0 mg/kg/injection, schedule: Q04DX003 (ip), vehicle: saline with Tween-80
[11] = dose: 200.0 mg/kg/injection, schedule: Q04DX003 (ip), vehicle: saline with Tween-80
[12] = dose: 400.0 mg/kg/injection, schedule: Q04DX003 (ip), vehicle: saline with Tween-80

Measured: T/C

CSc1ccccc1C1CCCCCC1OS(C)(=O)=O (stereo not drawn)
inactive: dose: 12.5 mg/kg/injection, schedule: Q04DX003 (ip), vehicle: Klucel (hydroxypropylcellulose) (HPC) 109 % of control | [1] 109 % of control | dose: 25.0 mg/kg/injection, schedule: Q04DX003 (ip), vehicle: Klucel (hydroxypropylcellulose) (HPC) 106 % of control | [2] 107 % of control | dose: 50.0 mg/kg/injection, schedule: Q04DX003 (ip), vehicle: Klucel (hydroxypropylcellulose) (HPC) 102 % of control | dose: 100.0 mg/kg/injection, schedule: Q01DX001 (ip), vehicle: Klucel (hydroxypropylcellulose) (HPC) 105 % of control | [3] 102 % of control | [4] 107 % of control

N#C/C(=C/c1ccc(O)cc1)C(=O)O
inactive: [4] 96 % of control | dose: 200.0 mg/kg/injection, schedule: Q04DX003 (ip), vehicle: Klucel (hydroxypropylcellulose) (HPC) 94 % of control | dose: 400.0 mg/kg/injection, schedule: Q04DX003 (ip), vehicle: Klucel (hydroxypropylcellulose) (HPC) 94 % of control

CCOC(=O)CCNC(COCc1ccccc1)C(=O)OCC (stereo not drawn)
inactive: [5] 98 % of control | dose: 200.0 mg/kg/injection, schedule: Q01DX001 (ip), vehicle: saline 95 % of control | [6] 106 % of control

CCC(O)C(CCN(C)C)(CN(C)C)c1ccccc1 (stereo not drawn)
inactive: dose: 75.0 mg/kg/injection, schedule: Q01DX001 (ip), vehicle: carboxymethylcellulose (CMC) 94 % of control | dose: 150.0 mg/kg/injection, schedule: Q01DX001 (ip), vehicle: carboxymethylcellulose (CMC) 102 % of control

NC(CCCCn1nnc2c(=O)[nH]cnc21)C(=O)O (stereo not drawn)
inactive: dose: 100.0 mg/kg/injection, schedule: Q04DX003 (ip), vehicle: saline 106 % of control | dose: 200.0 mg/kg/injection, schedule: Q04DX003 (ip), vehicle: saline 103 % of control | dose: 400.0 mg/kg/injection, schedule: Q04DX003 (ip), vehicle: saline 97 % of control

COc1ccc(NC(=O)Nc2ccc(C)c(Cl)c2)cc1
inactive: dose: 100.0 mg/kg/injection, schedule: Q01DX009 (sc), vehicle: olive oil, sesame oil, peanut oil 96 % of control | dose: 100.0 mg/kg/injection, schedule: Q04DX003 (sc), vehicle: olive oil, sesame oil, peanut oil 99 % of control | dose: 200.0 mg/kg/injection, schedule: Q01DX009 (sc), vehicle: olive oil, sesame oil, peanut oil 107 % of control | dose: 200.0 mg/kg/injection, schedule: Q04DX003 (sc), vehicle: olive oil, sesame oil, peanut oil 93 % of control | dose: 400.0 mg/kg/injection, schedule: Q01DX009 (sc), vehicle: olive oil, sesame oil, peanut oil 94 % of control | dose: 400.0 mg/kg/injection, schedule: Q04DX003 (sc), vehicle: olive oil, sesame oil, peanut oil 97 % of control

O=C(O)C(=O)Nc1ncn[nH]1
inactive: dose: 6.25 mg/kg/injection, schedule: Q01DX009 (ip), vehicle: Klucel (hydroxypropylcellulose) (HPC) 104 % of control | dose: 12.5 mg/kg/injection, schedule: Q01DX005 (ip), vehicle: Klucel (hydroxypropylcellulose) (HPC) 102 % of control | dose: 12.5 mg/kg/injection, schedule: Q01DX009 (ip), vehicle: Klucel (hydroxypropylcellulose) (HPC) 96 % of control and 104 % of control | [1] 100 % of control and 104 % of control | dose: 50.0 mg/kg/injection, schedule: Q01DX005 (ip), vehicle: Klucel (hydroxypropylcellulose) (HPC) 105 % of control and 106 % of control | [2] 107 % of control and 114 % of control | dose: 100.0 mg/kg/injection, schedule: Q04DX002 (ip), vehicle: Klucel (hydroxypropylcellulose) (HPC) 96 % of control | dose: 200.0 mg/kg/injection, schedule: Q04DX002 (ip), vehicle: Klucel (hydroxypropylcellulose) (HPC) 98 % of control

CC1(C)Cc2cccc(Br)c2O1
inactive: dose: 100.0 mg/kg/injection, schedule: Q01DX001 (ip), vehicle: other 98 % of control | dose: 200.0 mg/kg/injection, schedule: Q01DX001 (ip), vehicle: other 103 % of control | dose: 400.0 mg/kg/injection, schedule: Q01DX001 (ip), vehicle: other 97 % of control

O=C(Nc1ccccc1O)/C(Cl)=C/Cl
inactive: [7] 109 % of control | dose: 100.0 mg/kg/injection, schedule: Q04DX003 (ip), vehicle: saline sonified 104 % of control | [8] 102 % of control | dose: 200.0 mg/kg/injection, schedule: Q04DX003 (ip), vehicle: saline sonified 106 % of control | [9] 88 % of control | dose: 400.0 mg/kg/injection, schedule: Q04DX003 (ip), vehicle: saline sonified 106 % of control

CN(C)CCC(C(=O)c1ccccc1)c1ccccn1 (stereo not drawn)
inactive: dose: 55.0 mg/kg/injection, schedule: Q01DX Z (ip), vehicle: saline 100 % of control | dose: 83.0 mg/kg/injection, schedule: Q01DX Z (ip), vehicle: saline 107 % of control | dose: 125.0 mg/kg/injection, schedule: Q01DX Z (ip), vehicle: saline 96 % of control

NC1(c2ccccc2)CCCCC1
inactive: dose: 3.12 mg/kg/injection, schedule: Q01DX009 (ip), vehicle: saline 110 % of control | dose: 6.25 mg/kg/injection, schedule: Q01DX009 (ip), vehicle: saline 104 % of control | dose: 12.5 mg/kg/injection, schedule: Q01DX009 (ip), vehicle: saline 105 % of control | dose: 25.0 mg/kg/injection, schedule: Q01DX009 (ip), vehicle: saline 103 % of control | dose: 25.0 mg/kg/injection, schedule: Q04DX003 (ip), vehicle: saline 98 % of control | dose: 50.0 mg/kg/injection, schedule: Q01DX009 (ip), vehicle: saline 105 % of control | dose: 50.0 mg/kg/injection, schedule: Q04DX003 (ip), vehicle: saline 101 % of control

Cc1ccccc1NC(=O)Nc1ccccc1C
inactive: [3] 97 % of control | dose: 200.0 mg/kg/injection, schedule: Q01DX009 (ip), vehicle: Klucel (hydroxypropylcellulose) (HPC) 106 % of control | dose: 400.0 mg/kg/injection, schedule: Q01DX009 (ip), vehicle: Klucel (hydroxypropylcellulose) (HPC) 93 % of control

CCCCCCCCCCCCCCCCC1=NCCN1
inactive: dose: 5.0 mg/kg/injection, schedule: Q01DX009 (ip), vehicle: saline 91 % of control | dose: 10.0 mg/kg/injection, schedule: Q01DX001 (ip), vehicle: saline 94 % of control | dose: 10.0 mg/kg/injection, schedule: Q01DX009 (ip), vehicle: saline 91 % of control | dose: 10.0 mg/kg/injection, schedule: Q04DX003 (ip), vehicle: saline 94 % of control | dose: 20.0 mg/kg/injection, schedule: Q01DX001 (ip), vehicle: saline 97 % of control | dose: 20.0 mg/kg/injection, schedule: Q01DX009 (ip), vehicle: saline 88 % of control | dose: 20.0 mg/kg/injection, schedule: Q04DX003 (ip), vehicle: saline 93 % of control and 90 % of control | dose: 40.0 mg/kg/injection, schedule: Q01DX001 (ip), vehicle: saline 101 % of control | dose: 40.0 mg/kg/injection, schedule: Q04DX003 (ip), vehicle: saline 95 % of control and 88 % of control

O=c1sc2ccccc2n1CCSCCn1c(=S)sc2ccccc21
inactive: [5] 90 % of control | [6] 93 % of control

COC(=O)C(NC(=O)C1CCCN1C(=O)OCc1ccccc1)C(C)C (stereo not drawn) (Cbz-Pro-Val-OMe; configuration not given here)
inactive: dose: 25.0 mg/kg/injection, schedule: Q04DX003 (ip), vehicle: saline with Tween-80 95 % of control | dose: 50.0 mg/kg/injection, schedule: Q04DX003 (ip), vehicle: saline with Tween-80 95 % of control | [10] 106 % of control | [11] 95 % of control | [12] 94 % of control

CC1CCCC2C(=O)CCC(C(C)(C)O)C12C (stereo not drawn)
inactive: [7] 91 % of control | [10] 92 % of control | [8] 95 % of control | [11] 92 % of control | [9] 93 % of control | [12] 92 % of control

Nc1nc(N)c2nc(-c3ccccc3)c(N)nc2n1
inactive: dose: 2.13 mg/kg/injection, schedule: Q01DX Z (ip), vehicle: other 91 % of control | dose: 6.25 mg/kg/injection, schedule: Q01DX Z (ip), vehicle: other 97 % of control | dose: 12.5 mg/kg/injection, schedule: Q01DX Z (ip), vehicle: other 105 % of control

CCCNC(=O)Nc1ccc(C)cc1
inactive: dose: 100.0 mg/kg/injection, schedule: Q01DX001 (ip), vehicle: carboxymethylcellulose (CMC) 116 % of control | dose: 200.0 mg/kg/injection, schedule: Q01DX001 (ip), vehicle: carboxymethylcellulose (CMC) 94 % of control | dose: 400.0 mg/kg/injection, schedule: Q01DX001 (ip), vehicle: carboxymethylcellulose (CMC) 103 % of control
